Results reported in patent US20260070917A1, “CYCLIN DEPENDENT KINASE DEGRADERS AND METHODS OF USE THEREOF” (Differentiated Therapeutics Inc, priority 2023, published 2026).

Legend:
Format in all cases: cell-based
[1] = molecular target: T1, CDK2 (Homo sapiens, UniProt P24941); test: HiBit Assay Protocol for CDK2 (HIBIT protein quantification, degradation); conditions: HEK293-CDK2-Hibit cells, compound treatment for 6 hours; for DC50: ABS DC50
T1 construct: host or cells: HEK293-CDK2-Hibit
Method in brief: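 DC50 comes from a fitted curve of remaining CDK2-HiBiT luminescence, referenced to DMSO-treated cells and medium-only wells. HEK293-CDK2-HiBiT cells, plated the previous night, received compounds in a 10-point, 3-fold series for 6 h before lysis with LgBiT-containing Nano-Glo HiBiT reagent.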

[2] = molecular target: T2, CCNE1 (Homo sapiens, UniProt P24864); test: HiBit Assay Protocol for CCNE1 (HIBIT protein quantification, degradation); conditions: HEK293-CCNE1-Hibit cells, compound treatment for 6 hours
T2 construct: host or cells: HEK293-CCNE1-Hibit
T2 sequence (P24864 whole entry): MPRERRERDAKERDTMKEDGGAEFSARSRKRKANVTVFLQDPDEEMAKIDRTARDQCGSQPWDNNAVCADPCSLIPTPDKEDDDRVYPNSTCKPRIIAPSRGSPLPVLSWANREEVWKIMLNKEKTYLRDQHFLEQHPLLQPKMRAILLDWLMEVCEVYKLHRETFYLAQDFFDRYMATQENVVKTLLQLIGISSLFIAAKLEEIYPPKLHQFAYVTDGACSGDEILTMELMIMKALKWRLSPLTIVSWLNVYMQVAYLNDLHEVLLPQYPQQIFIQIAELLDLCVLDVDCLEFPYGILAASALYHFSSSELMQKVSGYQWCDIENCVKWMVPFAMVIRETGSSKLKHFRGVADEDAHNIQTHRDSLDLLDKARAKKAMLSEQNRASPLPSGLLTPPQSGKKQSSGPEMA
Method in brief: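 Degradation readout: lytic Nano-Glo HiBiT luminescence after 6 h exposure of HEK293-CCNE1-HiBiT cells to 10-point, 3-fold serial dilutions. Signal was scaled between medium-only and DMSO-treated wells, and DC50 came from curve fits.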

[3] = molecular target: T3, CDK9 (Homo sapiens, UniProt P50750); test: HiBit Assay Protocol for CDK9 (HIBIT protein quantification, degradation); conditions: HEK293-CDK9-Hibit cells, compound treatment for 6 hours; for Dmax: 6 h, read-out: CDK9 HIBIT Protein Quantification Maximum
T3 construct: host or cells: HEK293-CDK9-Hibit
T3 sequence (P50750 whole entry): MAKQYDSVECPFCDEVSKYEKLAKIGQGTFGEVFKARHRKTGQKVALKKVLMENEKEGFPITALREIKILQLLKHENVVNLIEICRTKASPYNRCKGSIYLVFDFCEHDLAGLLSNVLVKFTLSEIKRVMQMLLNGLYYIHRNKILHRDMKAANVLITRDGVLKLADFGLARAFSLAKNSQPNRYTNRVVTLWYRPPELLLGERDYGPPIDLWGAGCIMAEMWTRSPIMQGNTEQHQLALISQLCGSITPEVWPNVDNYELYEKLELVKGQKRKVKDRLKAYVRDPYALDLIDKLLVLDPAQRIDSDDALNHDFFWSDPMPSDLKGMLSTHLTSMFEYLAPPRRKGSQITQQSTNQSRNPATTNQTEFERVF
Method in brief: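 Degradation read-out: luminescence after lytic HiBiT/LgBiT detection in HEK293-CDK9-HiBiT cells exposed 6 h to 10-point, 3-fold compound dilutions. Signal scaled between 0.1% DMSO-treated cells and medium alone; DC50 fitted from the curve.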

Row | CDK2 HIBIT Protein Quantification Maximum [1] [%] | DC50 [1] [nM] | CCNE1 HIBIT Protein Quantification Maximum [2] [%] | Dmax [3] [%] | DC50 ([3]; ABS DC50) [nM] | Compound
1 | 71 | 2.09 | 20 | 8 |  | CC1CCCC1N1C(=O)C2(CC2)c2cnc(NC3CCN(S(=O)(=O)C4CCN(CC5CCN(c6ccc7c(c6)n(C)c(=O)n7C6CCC(=O)NC6=O)CC5)C4)CC3)nc21 (stereo not drawn) [Compound 140, 3-(3-Methyl-5-{4-[(3-{4-[7′-(2-methylcyclopentyl)-6′-oxospiro[cyclopropane-1,5′-pyrrolo[2,3-d]pyrimidin]-2′-ylamino]piperidin-1-ylsulfonyl}pyrrolidin-1-yl)methyl]piperidin-1-yl}-2-oxo-1,3-benzodiazol-1-yl)piperidine-2,6-dione]
2 | 46 |  | 25 | 40 |  | CC1CCCC1N1C(=O)C2(CC2)c2cnc(NC3CCN(S(=O)(=O)N4CCN(C(=O)CCCCCc5ccc6c(c5)n(C)c(=O)n6C5CCC(=O)NC5=O)CC4)CC3)nc21 (stereo not drawn) [Compound 77]
3 | 57 | 44 | 18 | 35 |  | CC1CCCC1N1C(=O)C2(CC2)c2cnc(NC3CCN(S(=O)(=O)N4CC(N(C)C(=O)CCCc5cccc6c5n(C)c(=O)n6C5CCC(=O)NC5=O)C4)CC3)nc21 (stereo not drawn) [Compound 22, 4-(1-(2,6-dioxopiperidin-3-yl)-3-methyl-2-oxo-2,3-dihydro-1H-benzo[d]imidazol-4-yl)-N-methyl-N-(1-((4-((7′-(2-methylcyclopentyl)-6′-oxo-6′,7′-dihydrospiro[cyclopropane-1,5′-pyrrolo[2,3-d]pyrimidin]-2′-yl)amino)piperidin-1-yl)sulfonyl)azetidin-3-yl)butanamide]
4 | 78 | 4.19 | 44 | 8 |  | Cn1nc(N2CCC(=O)NC2=O)c2ccc(C3CCN(Cc4cccc(S(=O)(=O)N5CCC(Nc6ncc7c(n6)N([C@@H]6CCC[C@@H](O)C6)C(=O)C76CC6)CC5)c4)CC3)c(F)c21 [Compound 175, 1-[7-fluoro-6-(1-{[3-(4-{7′-[(1R,3R)-3-Hydroxycyclohexyl]-6′-oxospiro[cyclopropane-1,5′-pyrrolo[2,3-d]pyrimidin]-2′-ylamino}piperidin-1-ylsulfonyl)phenyl]methyl}piperidin-4-yl)-1-methylindazol-3-yl]-1,3-diazinane-2,4-dione]
5 | 39 |  | 7 | 26 |  | CC1CCCC1N1C(=O)C2(CC2)c2cnc(NC3CCN(S(=O)(=O)N4CC5CN(C(=O)CCCCc6cccc7c6n(C)c(=O)n7C6CCC(=O)NC6=O)CC5C4)CC3)nc21 (stereo not drawn) [Compound 92]
6 | 93 | 12 | 36 | 14 |  | C[C@H](c1cccc(S(=O)(=O)N2CC[C@H](Nc3ncc4c(n3)N([C@@H]3CCC[C@@H](O)C3)C(=O)C43CC3)[C@H](F)C2)c1)N1CCN(c2ccc3c(N4CCC(=O)NC4=O)nn(C)c3c2)CC1 [Compound 196]
7 | 69 | 5 | 29 | 44 |  | CC1CCCC1N1C(=O)C2(CC2)c2cnc(NC3CCN(S(=O)(=O)N4CC5(CCN(C(=O)CCCCCc6cccc7c6n(C)c(=O)n7C6CCC(=O)NC6=O)CC5)C4)CC3)nc21 (stereo not drawn) [Compound 40]
8 | 31 |  | 7 | 0 |  | CC1CCCC1N1C(=O)C2(CC2)c2cnc(NC3CCN(S(=O)(=O)N4CC5CN(C(=O)CCCCc6ccc7c(c6)n(C)c(=O)n7C6CCC(=O)NC6=O)CC5C4)CC3)nc21 (stereo not drawn) [Compound 103]
9 | 40 |  | 15 | 36 |  | CC1CCCC1N1C(=O)C2(CC2)c2cnc(NC3CCN(S(=O)(=O)N4CCC5(CCCN5C(=O)CCCCc5ccc6c(c5)n(C)c(=O)n6C5CCC(=O)NC5=O)C4)CC3)nc21 (stereo not drawn) [Compound 105]
10 | 76 | 7 | 44 | 14 |  | Cn1nc(N2CCC(=O)NC2=O)c2ccc(C3CCN(Cc4cccc(S(=O)(=O)N5CCC(Nc6ncc7c(n6)N([C@@H]6CCC[C@@H](O)C6)C(=O)C76CC6)CC5)c4)CC3)cc21 [Compound 118, 1-(6-(1-(3-((4-((7′-((1R,3R)-3-hydroxycyclohexyl)-6′-oxo-6′,7′-dihydrospiro[cyclopropane-1,5′-pyrrolo[2,3-d]pyrimidin]-2′-yl)amino)piperidin-1-yl)sulfonyl)benzyl)piperidin-4-yl)-1-methyl-1H-indazol-3-yl)dihydropyrimidine-2,4(1H,3H)-dione]
11 | 74 | 5 | 35 | 44 |  | CC1CCCC1N1C(=O)C2(CC2)c2cnc(NC3CCN(S(=O)(=O)N4CCN(C(=O)CCCCCCCc5cccc6c5n(C)c(=O)n6C5CCC(=O)NC5=O)CC4)CC3)nc21 (stereo not drawn) [Compound 46]
12 | 57 | 9.42 | 28 | 17 |  | C[C@@H]1CN(S(=O)(=O)c2cccc(CN3CCC(c4ccc5c(N6CCC(=O)NC6=O)nn(C)c5c4)CC3)c2)CC[C@@H]1Nc1ncc2c(n1)N([C@@H]1CCC[C@@H](O)C1)C(=O)C21CC1 [Compound 153, 1-{6-[1-({3-[(3R,4S)-4-{7′-[(1R,3R)-3-Hydroxycyclohexyl]-6′-oxospiro[cyclopropane-1,5′-pyrrolo[2,3-d]pyrimidin]-2′-ylamino}-3-methylpiperidin-1-ylsulfonyl]phenyl}methyl)piperidin-4-yl]-1-methylindazol-3-yl}-1,3-diazinane-2,4-dione]
13 | 56 | 2 | 19 | 29 |  | CC1CCCC1N1C(=O)C2(CC2)c2cnc(NC3CCN(S(=O)(=O)N4CCC5(CCN(C(=O)CCCCCCCCCc6cccc7c6n(C)c(=O)n7C6CCC(=O)NC6=O)C5)C4)CC3)nc21 (stereo not drawn) [Compound 52]
14 | 12 |  | 10 | 9 |  | CC1CCCC1N1C(=O)C2(CC2)c2cnc(NC3CCN(S(=O)(=O)N4CC5(CN(C(=O)CCc6ccc7c(c6)n(C)c(=O)n7C6CCC(=O)NC6=O)C5)C4)CC3)nc21 (stereo not drawn) [Compound 58]
15 | 54 | 7 | 9 | 6 |  | CC1CCCC1N1C(=O)C2(CC2)c2cnc(NC3CCN(S(=O)(=O)N4CC5(CCCN(C(=O)CCCCCc6cccc7c6n(C)c(=O)n7C6CCC(=O)NC6=O)C5)C4)CC3)nc21 (stereo not drawn) [Compound 39]
16 | 53 | 36.1 | 26 | 5 |  | CC1CCCC1N1C(=O)C2(CC2)c2cnc(NC3CCN(S(=O)(=O)N4CC5(CCCCN5CC5CCN(c6cccc7c6n(C)c(=O)n7C6CCC(=O)NC6=O)CC5)C4)CC3)nc21 (stereo not drawn) [Compound 142]
17 | 50 |  | 25 | 35 |  | CC1CCCC1N1C(=O)C2(CC2)c2cnc(NC3CCN(S(=O)(=O)N4CCC5(CCN(C(=O)CCCCCCCCCc6ccc7c(c6)n(C)c(=O)n7C6CCC(=O)NC6=O)C5)C4)CC3)nc21 (stereo not drawn) [Compound 89]
18 | 79 | 4.08 | 25 | 14 |  | CC1CCCC1N1C(=O)C2(CC2)c2cnc(NC3CCN(S(=O)(=O)N4CCN(CC5CCN(c6cccc7c6n(C)c(=O)n7C6CCC(=O)NC6=O)CC5)CC4)CC3)nc21 (stereo not drawn) [Compound 145]
19 | 67 | 5 | 34 | 45 |  | CC1CCCC1N1C(=O)C2(CC2)c2cnc(NC3CCN(S(=O)(=O)C4CCN(C(=O)CCCCCCCCCc5ccc6c(c5)n(C)c(=O)n6C5CCC(=O)NC5=O)C4)CC3)nc21 (stereo not drawn) [Compound 90]
20 | 49 |  | 17 | 57 | 3.67 | CC1CCCC1N1C(=O)C2(CC2)c2cnc(NC3CCN(S(=O)(=O)N4CC5CN(C(=O)CCc6cccc7c6n(C)c(=O)n7C6CCC(=O)NC6=O)CC5C4)CC3)nc21 (stereo not drawn) [Compound 16]
21 | 38 |  | 9 | 6 |  | CC1CCCC1N1C(=O)C2(CC2)c2cnc(NC3CCN(S(=O)(=O)N4CC5(CCN(C(=O)CCCc6ccc7c(c6)n(C)c(=O)n7C6CCC(=O)NC6=O)CC5)C4)CC3)nc21 (stereo not drawn) [Compound 68]
22 | 15 |  | 2 | 14 |  | CC1CCCC1N1C(=O)C2(CC2)c2cnc(NC3CCN(S(=O)(=O)N4CCCC45CCN(C(=O)CCCc4ccc6c(c4)n(C)c(=O)n6C4CCC(=O)NC4=O)C5)CC3)nc21 (stereo not drawn) [Compound 63]
23 | 65 | 11 | 15 | 7 |  | CC1CCCC1N1C(=O)C2(CC2)c2cnc(NC3CCN(S(=O)(=O)N4CC5(CCCCN5C(=O)CCCCc5cccc6c5n(C)c(=O)n6C5CCC(=O)NC5=O)C4)CC3)nc21 (stereo not drawn) [Compound 95]
